Reference: ChEMBL document CHEMBL4808193, “[11]-Chaetoglobosins from Pseudeurotium bakeri Induce G2/M Cell Cycle Arrest and Apoptosis in Human Cancer Cells” (J Nat Prod, 2021)

What was measured:
[1] = test system: A-427; test: Cell cycle arrest in human A-427 cells assessed as accumulation at G0/G1 phase at 4 uM measured after 24 hrs by PI staining based flow cytometry (reference value: 45.36%); type: functional
[2] = test system: MCF7; test: Cell cycle arrest in human MCF7 cells assessed as accumulation at G0/G1 phase at 5 uM measured after 24 hrs by PI staining based flow cytometry (reference value: 62.38%); type: functional
[3] = test system: MCF7; test: Cell cycle arrest in human MCF7 cells assessed as accumulation at G0/G1 phase at 10 uM measured after 24 hrs by PI staining based flow cytometry (reference value: 62.38%); type: functional
[4] = test system: MCF7; test: Induction of apoptosis in human MCF7 cells assessed as early apoptotic cells at 15 uM measured after 24 hrs by Annexin V-FITC/propidium iodide staining based flow cytometric analysis (reference value: 2.97%); type: functional
[5] = test system: MCF7; test: Cell cycle arrest in human MCF7 cells assessed as accumulation at S phase at 15 uM measured after 24 hrs by PI staining based flow cytometry (reference value: 22.83%); type: functional
[6] = test system: A-427; test: Cell cycle arrest in human A-427 cells assessed as accumulation at G0/G1 phase at 6 uM measured after 24 hrs by PI staining based flow cytometry (reference value: 45.36%); type: functional
[7] = test system: MCF7; test: Cell cycle arrest in human MCF7 cells assessed as accumulation at G2/M phase at 10 uM measured after 24 hrs by PI staining based flow cytometry (reference value: 14.79%); type: functional
[8] = test system: MCF7; test: Induction of apoptosis in human MCF7 cells assessed as early apoptotic cells at 10 uM measured after 24 hrs by Annexin V-FITC/propidium iodide staining based flow cytometric analysis (reference value: 2.97%); type: functional
[9] = test system: MCF7; test: Cell cycle arrest in human MCF7 cells assessed as accumulation at G2/M phase at 15 uM measured after 24 hrs by PI staining based flow cytometry (reference value: 14.79%); type: functional
[10] = test system: HeLa; test: Cytotoxicity against human HeLa cells assessed as reduction in cell viability by MTT assay; type: functional, cell-based
[11] = test system: A549; test: Cytotoxicity against human A549 cells assessed as reduction in cell viability by MTT assay; type: functional, cell-based
[12] = test system: A-427; test: Induction of apoptosis in human A-427 cells assessed as late apoptotic cells at 4 uM measured after 24 hrs by Annexin V-FITC/propidium iodide staining based flow cytometric analysis (reference value: 1.70%); type: functional
[13] = test system: HT-29; test: Cytotoxicity against human HT-29 cells assessed as reduction in cell viability by MTT assay; type: functional, cell-based
[14] = test system: A-427; test: Cell cycle arrest in human A-427 cells assessed as accumulation at G2/M phase at 4 uM measured after 24 hrs by PI staining based flow cytometry (reference value: 17.34%); type: functional
[15] = test system: A-427; test: Induction of apoptosis in human A-427 cells assessed as early apoptotic cells at 4 uM measured after 24 hrs by Annexin V-FITC/propidium iodide staining based flow cytometric analysis (reference value: 4.50%); type: functional
[16] = test system: HCT-116; test: Cytotoxicity against human HCT-116 cells assessed as reduction in cell viability by MTT assay; type: functional, cell-based
[17] = test system: A-427; test: Induction of apoptosis in human A-427 cells assessed as early apoptotic cells at 6 uM measured after 24 hrs by Annexin V-FITC/propidium iodide staining based flow cytometric analysis (reference value: 4.50%); type: functional
[18] = test system: MCF7; test: Cell cycle arrest in human MCF7 cells assessed as accumulation at S phase at 10 uM measured after 24 hrs by PI staining based flow cytometry (reference value: 22.83%; type: functional
[19] = test system: A-427; test: Cell cycle arrest in human A-427 cells assessed as accumulation at S phase at 6 uM measured after 24 hrs by PI staining based flow cytometry (reference value: 37.30%); type: functional
[20] = test system: L02; test: Cytotoxicity against human L02 cells assessed as reduction in cell viability by MTT assay; type: cell-based
[21] = test system: MCF7; test: Cell cycle arrest in human MCF7 cells assessed as accumulation at S phase at 5 uM measured after 24 hrs by PI staining based flow cytometry (reference value: 22.83%); type: functional
[22] = test system: MCF7; test: Cell cycle arrest in human MCF7 cells assessed as accumulation at G2/M phase at 5 uM measured after 24 hrs by PI staining based flow cytometry (reference value: 14.79%); type: functional
[23] = test system: A-427; test: Cell cycle arrest in human A-427 cells assessed as accumulation at G2/M phase at 6 uM measured after 24 hrs by PI staining based flow cytometry (reference value: 17.34%); type: functional
[24] = test system: MCF7; test: Induction of apoptosis in human MCF7 cells assessed as late apoptotic cells at 15 uM measured after 24 hrs by Annexin V-FITC/propidium iodide staining based flow cytometric analysis (reference value: 0.76%); type: functional
[25] = test system: A-427; test: Cell cycle arrest in human A-427 cells assessed as accumulation at G0/G1 phase at 2 uM measured after 24 hrs by PI staining based flow cytometry (reference value: 45.36%); type: functional
[26] = test system: HepG2; test: Cytotoxicity against human HepG2 cells assessed as reduction in cell viability by MTT assay; type: functional, cell-based
[27] = test system: MCF7; test: Induction of apoptosis in human MCF7 cells assessed as early apoptotic cells at 5 uM measured after 24 hrs by Annexin V-FITC/propidium iodide staining based flow cytometric analysis (reference value: 2.97%); type: functional
[28] = test system: MCF7; test: Cell cycle arrest in human MCF7 cells assessed as accumulation at G0/G1 phase at 15 uM measured after 24 hrs by PI staining based flow cytometry (reference value: 62.38%); type: functional
[29] = test system: A-427; test: Cell cycle arrest in human A-427 cells assessed as accumulation at S phase at 4 uM measured after 24 hrs by PI staining based flow cytometry (reference value: 37.30%); type: functional
[30] = test system: A-427; test: Cell cycle arrest in human A-427 cells assessed as accumulation at G2/M phase at 2 uM measured after 24 hrs by PI staining based flow cytometry (reference value: 17.34%); type: functional
[31] = test system: A-427; test: Induction of apoptosis in human A-427 cells assessed as late apoptotic cells at 2 uM measured after 24 hrs by Annexin V-FITC/propidium iodide staining based flow cytometric analysis (reference value: 1.70%); type: functional
[32] = test system: MCF7; test: Cytotoxicity against human MCF7 cells assessed as reduction in cell viability by MTT assay; type: functional, cell-based
[33] = test system: A-427; test: Cytotoxicity against human A-427 cells assessed as reduction in cell viability by MTT assay; type: functional, cell-based
[34] = test system: A-427; test: Induction of apoptosis in human A-427 cells assessed as early apoptotic cells at 2 uM measured after 24 hrs by Annexin V-FITC/propidium iodide staining based flow cytometric analysis (reference value: 4.50%); type: functional
[35] = test system: A-427; test: Induction of apoptosis in human A-427 cells assessed as late apoptotic cells at 6 uM measured after 24 hrs by Annexin V-FITC/propidium iodide staining based flow cytometric analysis (reference value: 1.70%); type: functional
[36] = test system: MCF7; test: Induction of apoptosis in human MCF7 cells assessed as late apoptotic cells at 10 uM measured after 24 hrs by Annexin V-FITC/propidium iodide staining based flow cytometric analysis (reference value: 0.76%); type: functional
[37] = test system: MCF7; test: Induction of apoptosis in human MCF7 cells assessed as late apoptotic cells at 5 uM measured after 24 hrs by Annexin V-FITC/propidium iodide staining based flow cytometric analysis (reference value: 0.76%); type: functional
[38] = test system: A-427; test: Cell cycle arrest in human A-427 cells assessed as accumulation at S phase at 2 uM measured after 24 hrs by PI staining based flow cytometry (reference value: 37.30%); type: functional

## CC1=C[C@@H]2/C=C/C[C@H](C)CC(=O)/C=C/C(=O)[C@]23C(=O)N[C@@H](Cc2c[nH]c4ccccc24)[C@@H]3[C@@H]1C
[1]
  Activity: 36.51%
[2]
  Activity: 49.01%
[3]
  Activity: 40.98%
[4]
  Activity: 32.79%
[5]
  Activity: 8.11%
[6]
  Activity: 33.91%
[7]
  Activity: 51.9%
[8]
  Activity: 19.17%
[9]
  Activity: 55.69%
[10]
  IC50: 8.6 µM
[11]
  IC50: 9.5 µM
[12]
  Activity: 25.77%
[13]
  IC50: 8.9 µM
[14]
  Activity: 47.21%
[15]
  Activity: 19.74%
[16]
  IC50: 12.2 µM
[17]
  Activity: 24.44%
[18]
  Activity: 7.12%
[19]
  Activity: 16.51%
[20]
  IC50: 36.3 µM
[21]
  Activity: 8.32%
[22]
  Activity: 42.67%
[23]
  Activity: 49.58%
[24]
  Activity: 13.22%
[25]
  Activity: 43.99%
[26]
  IC50: 9.1 µM
[27]
  Activity: 11.22%
[28]
  Activity: 36.2%
[29]
  Activity: 16.28%
[30]
  Activity: 36.13%
[31]
  Activity: 14.29%
[32]
  IC50: 6.5 µM
[33]
  IC50: 4.8 µM
[34]
  Activity: 8.26%
[35]
  Activity: 29.64%
[36]
  Activity: 6.99%
[37]
  Activity: 5.79%
[38]
  Activity: 19.88%
